Data reported in article PMC10341805, “Positive Allosteric Modulator of SERCA Pump NDC-1173 Exerts Beneficial Effects in Mouse Model of Alzheimer’s Disease” (International Journal of Molecular Sciences, 2023).
Where two headings read alike, the source gives them in different places.

Assays:
[1] = tested on: Na/K-ATPase; assay: Selectivity test on Na/K-ATPase; format: biochemical; settings: selectivity for SERCA
[2] = Pharmacokinetics in CD-1 mice (plasma and brain); format: in vivo, mouse
Experimental: Pharmacokinetics of NDC-1173 were assessed in CD-1 mice. The compound was formulated at 1 mg/mL in DMSO/Tween 80/water (10/10/80, vol/vol/vol) and dosed at 2 mg/kg intravenously (i.v.) or 10 mg/kg via oral gavage (P.O.) in triplicate. Blood was drawn at 0.25 h, 0.5 h, 1 h, 2 h, 4 h, 8 h, and 24 h into EDTA-containing tubes, and plasma was harvested via centrifugation. Plasma (10 μL) containing 50% acetonitrile in water (5 μL) was added to 200 µL of ACN containing an internal standard. The samples were vortexed for 30 s. After centrifugation at 4 °C and 4000 rpm for 15 min, the supernatant was diluted 3 times with water. Then, 20 µL of diluted supernatant was injected into the LC/MS/MS system for quantitative analysis. The samples were injected onto an Agilent ZORBAX XDB-Phenyl 5 μ column (50 × 2.10 mm). Mobile Phase A was water with 0.1% formic acid. Mobile Phase B was acetonitrile with 0.1% formic acid. Separation was achieved using a gradient of 70% A/30% B to 0% A/100% B over 2.10 min. A Shimadzu LCMS-8050 equipped with a turbo ion spray source was used for all analytical measurements. Data were fit using WinNonLin https://www.certara.com/software/phoenix-winnonlin/, accessed on 1 May 2023.

[3] = tested on: binding immunoglobulin protein (BiP/Grp78); assay: qPCR of ER-stress marker BiP mRNA in hippocampus of treated APP/PS1 mice; format: in vivo, mouse; settings: 30 mg/kg oral gavage 3 times per week for 8 weeks, vs untreated APP/PS1, normalized to Cyclophilin, mean ± SD
Text: (§1) As previously established in Alzheimer’s disease (AD) research, ER stress is an apparent consequence of protein misfolding within AD pathophysiology. In response to this ER stress, cells activate a group of signaling pathways known as the unfolded protein response (UPR) that aims to restore ER function so the cell may survive. […] We examined the mRNA expression levels of these ER-stress markers in the hippocampus of APP/PS1 mice treated with NUCC-0226446, NUCC-0226614, NUCC-0226646, and NDC-1173 compounds compared to untreated APP/PS1 mice utilizing real-time quantitative PCR using primer sets indicated in Table 2. There was significant reduction (p = 0.0002) in the ER-stress marker, Chop, after treatment with NDC-1173 compared to untreated APP/PS1 mice (n = 9–11) (Figure 4, Table 3). […]
(§2) At 10 months of age, mice were rapidly decapitated, and the entire hippocampus was dissected and snap-frozen using liquid nitrogen. […] Total RNA concentration and purity was then measured using a NanoDrop spectrophotometer. […] Data were exported from the RT PCR machine into an excel worksheet. %CVs were calculated between triplicate well CT values to rule out technical outliers. […] Relative expression was then analyzed following the comparative CT method ( 2^−∆∆CT method).

[4] = tested on: APP/PS1 mice; assay: Object recognition task; format: in vivo, mouse; settings: 30 mg/kg oral gavage 3 times per week for 8 weeks, test 24 h after training
Experimental: (§3) To evaluate the effects of NUCC-0226446, NUCC-0226614, NUCC-0226646, and NDC-1173 on cognitive readouts in the AD mouse model, we treated APP/PS1 male and female mice with vehicle (10%DMSO/10%Tween80 in water) or SERCA PAMs (30 mg/kg) via oral gavage three times per week for 8 weeks, starting at 6 months of age. Open-field, object-recognition, and water maze assays were performed following treatment with 8-month-old mice. To test for locomotor activity changes in response to SERCA PAMs treatment in APP/PS1, we used the open-field test. The results obtained with NUCC-0226446, NUCC-0226614, NUCC-0226646 are shown in Supplementary Figure S1 and results with NDC-1173 are shown in Figure 3. […] There was a significant sex difference in the open field (F(1,27) = […]), but there was no sex by treatment interaction found.
(§4) Vehicle or NDC 1173 was administered via oral gavage 3 times per week for 8 weeks at a dose of 30 mg/kg in a vehicle containing 10%DMSO/10%Tween80 in water at a 3 mg/mL concentration. […]
The object recognition task (OR) was performed as previously described. […] Interaction was determined by the length of time the mouse’s nose was within 1 cm of a tightly drawn zone around each object. […] Time spent interacting with each object was then measured using Ethovision XT software (Version 15). […]

[5] = tested on: ryanodine receptor; assay: Selectivity test on ryanodine receptor; format: biochemical; settings: selectivity for SERCA
[6] = tested on: X-box binding protein 1 spliced variant (XBP1spl); assay: qPCR of ER-stress marker XBP1spl mRNA in hippocampus of treated APP/PS1 mice; format: in vivo, mouse; settings: 30 mg/kg oral gavage 3 times per week for 8 weeks, vs untreated APP/PS1, normalized to Cyclophilin, mean ± SD
Text: as §1, §2

[7] = tested on: activating transcription factor 6 (ATF6); assay: qPCR of ER-stress marker ATF6 mRNA in hippocampus of treated APP/PS1 mice; format: in vivo, mouse; settings: 30 mg/kg oral gavage 3 times per week for 8 weeks, vs untreated APP/PS1, normalized to Cyclophilin, mean ± SD
Text: as §1, §2

[8] = tested on: C/EBP homologous protein (CHOP/Ddit3); assay: qPCR of ER-stress marker CHOP mRNA in hippocampus of treated APP/PS1 mice; format: in vivo, mouse; settings: 30 mg/kg oral gavage 3 times per week for 8 weeks, vs untreated APP/PS1, normalized to Cyclophilin, mean ± SD
Text: as §1, §2

[9] = tested on: APP/PS1 mice; assay: Morris water maze (training and probe trial); format: in vivo, mouse; settings: 30 mg/kg oral gavage 3 times per week for 8 weeks
Experimental: as §3, §4
The water maze consisted of 3 phases pre-training, training, and probe trial. […] Ethovision XT (Version 15) tracking software recorded the latency to the platform. […] During the probe trial, the platform was not present within the pool and the search pattern of the mouse is measured. […]

[10] = tested on: L-type Ca channel; assay: Selectivity test on L-type Ca channel; format: biochemical; settings: selectivity for SERCA
[11] = tested on: APP/PS1 mice; assay: Tolerability during 8 weeks of administration; format: in vivo, mouse; settings: 30 mg/kg oral gavage 3 times per week for 8 weeks
Experimental: Vehicle or NDC 1173 was administered via oral gavage 3 times per week for 8 weeks at a dose of 30 mg/kg in a vehicle containing 10%DMSO/10%Tween80 in water at a 3 mg/mL concentration. The dose was chosen so that the drug would be on board while the first signs of amyloid plaques appear (6 mos) and before the time the disease had fully progressed. We chose to administer the drug 3 times per week to cause minimal stress to the mouse.

[12] = tested on: activating transcription factor 4 (ATF4); assay: qPCR of ER-stress marker ATF4 mRNA in hippocampus of treated APP/PS1 mice; format: in vivo, mouse; settings: 30 mg/kg oral gavage 3 times per week for 8 weeks, vs untreated APP/PS1, normalized to Cyclophilin, mean ± SD
Text: as §1, §2

[13] = tested on: APP/PS1 mice; assay: Ca2+ imaging in APP/PS1 mice; design: species or system mouse
[14] = CD-1, mouse, plasma, oral administration 10 mg/kg

Functional effect on Na/K-ATPase [1]	half-life ([2]; CD-1, mouse, brain, oral administration 10 mg/kg, read-out: Brain t1/2 (converted)) [h]	Kp ([2]; CD-1, mouse, brain/plasma, oral administration 10 mg/kg, read-out: Brain/plasma ratio)	AUC [2, 14] [ng·h/mL]	Cmax [2, 14] [nM]	half-life ([2]; CD-1, mouse, plasma, oral administration 10 mg/kg, read-out: Plasma t1/2 (converted)) [h]	bioavailability ([2]; CD-1, mouse, plasma, oral, 10 mg/kg P.O. vs 2 mg/kg i.v.) [%]	Brain concentration at 2 h ([2]; oral administration 10 mg/kg) [nM]	Functional effect on ryanodine receptor [5]	Structure (SMILES)	Fold-change of BiP mRNA expression [3]	Object memory (time spent with novel object) vs vehicle [4]	Fold-change of XBP1spl mRNA expression [6]	Fold-change of ATF6 mRNA expression [7]	Fold-change of CHOP mRNA expression [8]	Spatial learning in water maze training (4 days) vs vehicle [9]	Spatial memory in water maze probe trial (time in target quadrant) vs vehicle ([9]; 24 h after last training)	Functional effect on L-type Ca channel [10]	Adverse effects or weight loss [11]	Fold-change of ATF4 mRNA expression [12]	Effect on Ca2+ homeostasis [13]
no significant functional effects	1.1	2.8	375	1250	0.9	25.6	2500	no significant functional effects	COc1c(C)cccc1C(=O)Nc1cccc2ccc(C)nc12 [NDC-1173, 2-methoxy-3-methyl-N-(2-methylquinolin-8-yl)benzamide]	0.74 ± 0.401	significant increase in time spent with the novel object	0.72 ± 0.577	0.79 ± 0.327	0.52 ± 0.195	did not have better performance in spatial learning	spent more time in the quadrant where the escape platform was located	no significant functional effects	no adverse effects or weight loss	1.17 ± 0.496	–
–	–	–	–	–	–	–	–	–	Cc1ccc2cccc(NC(=O)c3ccc(OC(C)C)cc3)c2n1 [CDN-1163]	–	–	–	–	–	–	–	–	–	–	restores normal Ca^2+ homeostasis
